“And” between values parts separate entries of the source, which are not always exact repeats. Identical values can stand only once. Toxic doses and inconclusive results are not listed. No stated cut-off is given here; in the data, active means T/C of 150% or more; inactive means T/C below 125%.
System: L1210 leukemia ip in BDF1 mice, survival T/C
Assay: NCI In Vivo Anticancer Drug Screen. Data for tumor model L1210 Leukemia (intraperitoneal) in B6D2F1 (BDF1) mice
Settings: endpoint: mean survival time, higher = longer survival
Method in brief: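 Ratio derived from survival: compound-dosed mice over vehicle-dosed mice, all bearing a transplantable tumor.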

[1] = dose: 100.0 mg/kg/injection, schedule: Q04DX003 (ip), vehicle: saline with Tween-80
[2] = dose: 200.0 mg/kg/injection, schedule: Q04DX003 (ip), vehicle: saline with Tween-80
[3] = dose: 400.0 mg/kg/injection, schedule: Q04DX003 (ip), vehicle: saline with Tween-80
[4] = dose: 100.0 mg/kg/injection, schedule: Q01DX001 (ip), vehicle: saline
[5] = dose: 200.0 mg/kg/injection, schedule: Q01DX001 (ip), vehicle: saline
[6] = dose: 400.0 mg/kg/injection, schedule: Q01DX001 (ip), vehicle: saline
[7] = dose: 100.0 mg/kg/injection, schedule: Q04DX003 (ip), vehicle: Klucel (hydroxypropylcellulose) (HPC)
[8] = dose: 200.0 mg/kg/injection, schedule: Q04DX003 (ip), vehicle: Klucel (hydroxypropylcellulose) (HPC)
[9] = dose: 400.0 mg/kg/injection, schedule: Q04DX003 (ip), vehicle: Klucel (hydroxypropylcellulose) (HPC)
[10] = dose: 50.0 mg/kg/injection, schedule: Q01DX009 (ip), vehicle: Klucel (hydroxypropylcellulose) (HPC)
[11] = dose: 100.0 mg/kg/injection, schedule: Q01DX009 (ip), vehicle: Klucel (hydroxypropylcellulose) (HPC)

Measured: T/C

OCCOc1ccc(OCCO)cc1
inactive: [1] 94 % of control | [2] 97 % of control | [3] 99 % of control

CCCCCCCC(=O)N1CCCCC1C (configuration not stated)
inactive: dose: 100.0 mg/kg/injection, schedule: Q04DX002 (ip), vehicle: Klucel (hydroxypropylcellulose) (HPC) 103 % of control | dose: 200.0 mg/kg/injection, schedule: Q04DX002 (ip), vehicle: Klucel (hydroxypropylcellulose) (HPC) 103 % of control | dose: 400.0 mg/kg/injection, schedule: Q04DX002 (ip), vehicle: Klucel (hydroxypropylcellulose) (HPC) 98 % of control

O=C(Cc1ccccc1)c1ccc(O)cc1O
inactive: dose: 50.0 mg/kg/injection, schedule: Q01DX001 (ip), vehicle: saline 104 % of control | [4] 104 % of control | dose: 100.0 mg/kg/injection, schedule: Q04DX003 (ip), vehicle: gum acacia 113 % of control | [5] 102 % of control | dose: 200.0 mg/kg/injection, schedule: Q04DX003 (ip), vehicle: gum acacia 98 % of control | [6] 102 % of control | dose: 400.0 mg/kg/injection, schedule: Q04DX003 (ip), vehicle: gum acacia 101 % of control

CCCCCCCCCCCCCCCCCC1=NC(C)(CO)CO1 (configuration not stated)
inactive: [7] 102 % of control | [8] 96 % of control | [9] 107 % of control

CC(=O)c1ccc(C(O)C(CO)NC(=O)C(Cl)Cl)cc1 (configuration not stated)
inactive: [7] 100 % of control | [8] 103 % of control | [9] 103 % of control

Nc1ncnc2nc(I)[nH]c12
inactive: [4] 93 % of control | [5] 98 % of control

O=C(Oc1ccccc1C(=O)O)c1ccccc1O
inactive: dose: 50.0 mg/kg/injection, schedule: Q04DX003 (ip), vehicle: Klucel (hydroxypropylcellulose) (HPC) 90 % of control | [7] 97 % of control and 102 % of control | [8] 114 % of control | [9] 96 % of control

Brc1n[nH]nc1Br
inactive: [1] 98 % of control | [2] 104 % of control | [3] 101 % of control

O=Cc1nc2ccccc2c2ccccc12
inactive: [1] 89 % of control | [2] 94 % of control | [3] 103 % of control

CN(C)N=C(c1ccccc1)c1ccccc1
inactive: [10] 86 % of control | [11] 97 % of control

COC1OC(CNCCO)C2OC(C)(C)OC12 (configuration not stated)
inactive: dose: 100.0 mg/kg/injection, schedule: Q01DX009 (ip), vehicle: saline 103 % of control | dose: 100.0 mg/kg/injection, schedule: Q04DX003 (ip), vehicle: saline 101 % of control | dose: 200.0 mg/kg/injection, schedule: Q01DX009 (ip), vehicle: saline 96 % of control | dose: 200.0 mg/kg/injection, schedule: Q04DX003 (ip), vehicle: saline 98 % of control | dose: 400.0 mg/kg/injection, schedule: Q01DX009 (ip), vehicle: saline 101 % of control | dose: 400.0 mg/kg/injection, schedule: Q04DX003 (ip), vehicle: saline 95 % of control

CC(C)c1ccc(/C=N/NC(=O)C[n+]2ccccc2)cc1
inactive: dose: 12.5 mg/kg/injection, schedule: Q01DX009 (ip), vehicle: saline 100 % of control | dose: 25.0 mg/kg/injection, schedule: Q01DX009 (ip), vehicle: saline 105 % of control | dose: 50.0 mg/kg/injection, schedule: Q01DX009 (ip), vehicle: saline 94 % of control

CN(C1=NS(=O)(=O)N=C(N(C)c2ccccc2)O1)c1ccccc1
inactive: [7] 102 % of control | [8] 102 % of control | [9] 98 % of control

OC(CNc1ccc(Cl)cc1)CN1CCCC1 (configuration not stated)
inactive: dose: 75.0 mg/kg/injection, schedule: Q04DX003 (ip), vehicle: saline 101 % of control

Nc1ccc(SC(Sc2ccc(N)cc2)c2ccccc2)cc1
inactive: dose: 75.0 mg/kg/injection, schedule: Q01DX001 (ip), vehicle: other 105 % of control | dose: 75.0 mg/kg/injection, schedule: Q04DX003 (ip), vehicle: other 101 % of control | dose: 150.0 mg/kg/injection, schedule: Q01DX001 (ip), vehicle: other 107 % of control | dose: 150.0 mg/kg/injection, schedule: Q04DX003 (ip), vehicle: other 89 % of control | dose: 300.0 mg/kg/injection, schedule: Q01DX001 (ip), vehicle: other 100 % of control | dose: 300.0 mg/kg/injection, schedule: Q04DX003 (ip), vehicle: other 92 % of control

O=c1[nH]cnc2nc(I)[nH]c12
inactive: [4] 104 % of control | [5] 98 % of control | [6] 98 % of control

CC1(C)N=C(N)N=C(N)N1c1ccc(OCCCCOc2ccc(S(=O)(=O)F)cc2)cc1
inactive: dose: 75.0 mg/kg/injection, schedule: Q01DX001 (ip), vehicle: Klucel (hydroxypropylcellulose) (HPC) 106 % of control | dose: 150.0 mg/kg/injection, schedule: Q01DX001 (ip), vehicle: Klucel (hydroxypropylcellulose) (HPC) 91 % of control | dose: 300.0 mg/kg/injection, schedule: Q01DX001 (ip), vehicle: Klucel (hydroxypropylcellulose) (HPC) 96 % of control

COC(=O)c1ccccc1NC(=O)Nc1ccccc1Cl
inactive: [10] 88 % of control | [11] 88 % of control | [7] 89 % of control | [8] 92 % of control

c1ccc(CN2CCCCC2)nc1
inactive: dose: 10.0 mg/kg/injection, schedule: Q01DX009 (ip), vehicle: Klucel (hydroxypropylcellulose) (HPC) 103 % of control | dose: 10.0 mg/kg/injection, schedule: Q04DX003 (ip), vehicle: Klucel (hydroxypropylcellulose) (HPC) 92 % of control | dose: 20.0 mg/kg/injection, schedule: Q01DX009 (ip), vehicle: Klucel (hydroxypropylcellulose) (HPC) 91 % of control | dose: 20.0 mg/kg/injection, schedule: Q04DX003 (ip), vehicle: Klucel (hydroxypropylcellulose) (HPC) 97 % of control | dose: 40.0 mg/kg/injection, schedule: Q04DX003 (ip), vehicle: Klucel (hydroxypropylcellulose) (HPC) 97 % of control

CCOC(=O)c1c[nH]c2cc(OC)ccc2c1=O
inactive: dose: 100.0 mg/kg/injection, schedule: Q01DX009 (ip), vehicle: saline with Tween-80 92 % of control | dose: 200.0 mg/kg/injection, schedule: Q01DX009 (ip), vehicle: saline with Tween-80 93 % of control

CCOC(=O)/C(C#N)=C\c1cccc2ccccc12
inactive: [4] 98 % of control | dose: 100.0 mg/kg/injection, schedule: Q04DX003 (ip), vehicle: other 92 % of control | [5] 103 % of control | dose: 200.0 mg/kg/injection, schedule: Q04DX003 (ip), vehicle: other 92 % of control | [6] 100 % of control | dose: 400.0 mg/kg/injection, schedule: Q04DX003 (ip), vehicle: other 93 % of control

N#Cc1ccc(O)c(-c2ccccn2)c1
inactive: [7] 94 % of control | [8] 93 % of control | [9] 94 % of control

CC[C@@H]1C[C@@H]2CN3CCc4c([nH]c5ccc(OC)cc45)C(C(=O)OC)(C2)C13
inactive: [10] 89 % of control | [11] 94 % of control | dose: 200.0 mg/kg/injection, schedule: Q01DX009 (ip), vehicle: Klucel (hydroxypropylcellulose) (HPC) 89 % of control

CC(=O)N(c1ccc(NC(=O)c2ccc(N3C(=O)c4ccccc4C3=O)cc2[N+](=O)[O-])cc1)c1cc[n+](C)cc1
inactive: dose: 100.0 mg/kg/injection, schedule: Q01DX001 (ip), vehicle: saline with Tween-80 93 % of control and 90 % of control | dose: 100.0 mg/kg/injection, schedule: Q04DX002 (ip), vehicle: saline with Tween-80 101 % of control and 115 % of control | dose: 200.0 mg/kg/injection, schedule: Q01DX001 (ip), vehicle: saline with Tween-80 93 % of control and 108 % of control | dose: 200.0 mg/kg/injection, schedule: Q04DX002 (ip), vehicle: saline with Tween-80 101 % of control and 113 % of control | dose: 400.0 mg/kg/injection, schedule: Q01DX001 (ip), vehicle: saline with Tween-80 107 % of control and 90 % of control | dose: 400.0 mg/kg/injection, schedule: Q04DX002 (ip), vehicle: saline with Tween-80 96 % of control and 105 % of control

Reference: PubChem BioAssay AID248 (DTP/NCI, 2004)
